Data from patent publication US20040162275A1, “Multivalently interactive molecular assembly, capturing agent, drug carrier, calcium chelating agent, and drug enhancer” (Nobuhiko Yui, priority 2002, published 2004).

Target: concanavalin A (ConA) (Canavalia ensiformis, UniProt P02866)
Experiment: Hemagglutination inhibition test, Mal-polyrotaxane conjugate and ConA (Example 11)
Type: cell-based
Settings: rat erythrocyte, ConA at 4-fold minimum hemagglutinating concentration, maltose basis, FIG. 19
Procedure: Next, hemagglutination inhibition test was performed to evaluate the interaction between Mal-polyrotaxane conjugate and concanavalin A (ConA), then 20 μL of diluted Mal-polyrotaxane conjugate in saline and 20 μL of solution of ConA in saline were dispensed in a 96well plate (U-bottom), stirred, and then incubated at 37° C. for 30 minutes. Next, 40 μL of 2% (v/v) rat erytlirocyte was added to the plate, and the mixture was stirred and then incubated at 37° C. for 30 minutes. The precipitation of erythrocyte was monitored to determine hemagglutination, and the minimum concentration to inhibit hemagglutination was determined. The ConA concentration was set up at a 4-fold higher value than the minimum concentration of ConA at which hemagglutination occurs.
Relative MIC=(Min. inhibitory conc. of maltose)/(Min inhibitory conc. of maltose in the conjugate)

OC[C@H]1O[C@H](O[C@H]2[C@H](O)[C@@H](O)C(O)O[C@@H]2CO)[C@H](O)[C@@H](O)[C@@H]1O (mixture of isomers) [Mal, maltose]
minimum concentration to inhibit hemagglutination: 9.1 mM
